{"source": "patent US6479434B1", "about": "“Composition and method for treating plants with exogenous chemicals” (Monsanto Technology LLC, priority 1996, dated 2002)", "type_in_all_cases": "in vivo", "key": {"[1]": {"tested_on": "Prickly sida (Sida spinosa, SIDSP)", "experiment": "Example 52 greenhouse herbicidal inhibition, acifluorfen sodium compositions (Table 52)", "conditions": "evaluated 10 days after application", "from_the_text": "(§1) Seeds of the plant species indicated were planted in 85 mm square pots in a soil mix which was previously steam sterilized and prefertilized with a 13-13-14 NPK slow release fertilizer at a rate of 3.6 kg/m^3. The pots were placed in a greenhouse with sub-irrigation. About one week after emergence, seedlings were thinned as needed, including removal of any unhealthy or abnormal plants, to create a uniform series of test pots.\n(§2) The plants were maintained for the duration of the test in the greenhouse where they received a minimum of 14 hours of light per day. If natural light was insufficient to achieve the daily requirement, artificial light with an intensity of approximately 475 microeinsteins was used to make up the difference. Exposure temperatures were not precisely controlled but averaged about 27° C. during the day and about 18° C. during the night. Plants were sub-irrigated throughout the test to ensure adequate soil moisture levels.\n(§3) A set of pots was left untreated as a reference against which effects of the treatments could later be evaluated.\n(§4) Application of glyphosate compositions was made by spraying with a track sprayer fitted with a 9501E nozzle calibrated to deliver a spray volume of 93 liters per hectare (l/ha) at a pressure of 166 kilopascals (kPa). After treatment, pots were returned to the greenhouse until ready for evaluation.\n(§5) For evaluation of herbicidal effectiveness, all plants in the test were examined by a single practiced technician, who recorded percent inhibition, a visual measurement of the effectiveness of each treatment by comparison with untreated plants.\n(§6) Velvetleaf (Abutilon theophrasti, ABUTH), Japanese millet (Echinochloa crus-galli, ECHCF) and prickly sida (Sida spinosa, SIDSP) plants were grown and treated by the standard procedures given above. Applications of spray compositions were made 15 days after planting ABUTH, 9 days after planting ECHCF and 22 days after planting SIDSP. Evaluation of herbicidal inhibition was done 10 days after application."}, "[2]": {"tested_on": "Japanese millet (Echinochloa crus-galli, ECHCF)", "experiment": "Example 52 greenhouse herbicidal inhibition, acifluorfen sodium compositions (Table 52)", "conditions": "evaluated 10 days after application", "from_the_text": "as §1, §2, §3, §4, §5, §6"}, "[3]": {"tested_on": "Velvetleaf (Abutilon theophrasti, ABUTH)", "experiment": "Example 52 greenhouse herbicidal inhibition, acifluorfen sodium compositions (Table 52)", "conditions": "evaluated 10 days after application", "from_the_text": "as §1, §2, §3, §4, §5, §6"}, "[4]": {"tested_on": "Prickly sida (Sida spinosa, SIDSP)", "experiment": "Example 53 greenhouse herbicidal inhibition, asulam compositions (Table 53)", "conditions": "asulam rate 200 g a.i./ha; evaluated 14 days after application", "from_the_text": "as §1\n(§7) The plants were maintained for the duration of the test in the greenhouse where they received a minimum of 14 hours of light per day. If natural light was insufficient to achieve the daily requirement, artificial light with an intensity of approximately 475 microeinsteins was used to make up the difference. […]\nas §3, §4\n(§8) For evaluation of herbicidal effectiveness, all plants in the test were examined by a single practiced technician, who recorded percent inhibition, a visual measurement of the effectiveness of each treatment by comparison with untreated plants. […]"}, "[5]": {"tested_on": "Japanese millet (Echinochloa crus-galli, ECHCF)", "experiment": "Example 53 greenhouse herbicidal inhibition, asulam compositions (Table 53)", "conditions": "asulam rate 200 g a.i./ha; evaluated 14 days after application", "from_the_text": "as §1, §7, §3, §4, §8"}, "[6]": {"tested_on": "Prickly sida (Sida spinosa, SIDSP)", "experiment": "Example 54 greenhouse herbicidal inhibition, dicamba sodium compositions (Table 54)", "conditions": "evaluated 17 days after application", "from_the_text": "as §1, §2, §3, §4, §5\n(§9) Velvetleaf (Abutilon theophrasti, ABUTH), Japanese millet (Echinochloa crus-galli, ECHCF) and prickly sida (Sida spinosa, SIDSP) plants were grown and treated by the standard procedures given above. Applications of spray compositions were made 14 days after planting ABUTH, 8 days after planting ECHCF and 21 days after planting SIDSP. Evaluation of herbicidal inhibition was done 17 days after application."}, "[7]": {"tested_on": "Japanese millet (Echinochloa crus-galli, ECHCF)", "experiment": "Example 54 greenhouse herbicidal inhibition, dicamba sodium compositions (Table 54)", "conditions": "evaluated 17 days after application", "from_the_text": "as §1, §2, §3, §4, §5, §9"}, "[8]": {"tested_on": "Velvetleaf (Abutilon theophrasti, ABUTH)", "experiment": "Example 54 greenhouse herbicidal inhibition, dicamba sodium compositions (Table 54)", "conditions": "evaluated 17 days after application", "from_the_text": "as §1, §2, §3, §4, §5, §9"}, "[9]": {"tested_on": "Japanese millet (Echinochloa crus-galli, ECHCF)", "experiment": "Example 57 greenhouse herbicidal inhibition, fluazifop-p-butyl compositions (Table 57)", "conditions": "fluazifop-p rate 5 g a.i./ha; evaluation 10 days after application", "from_the_text": "as §1, §2, §3\n[…] After treatment, pots were returned to the greenhouse until ready for evaluation.\nas §8"}, "[10]": {"tested_on": "Prickly sida (Sida spinosa, SIDSP)", "experiment": "Example 51 greenhouse herbicidal inhibition, paraquat dichloride compositions (Table 51)", "conditions": "evaluated 12 days after application", "from_the_text": "as §1, §2, §3, §4, §5\n(§10) Velvetleaf (Abutilon theophrasti, ABUTH), Japanese millet (Echinochloa crus-galli, ECHCF) and prickly sida (Sida spinosa, SIDSP) plants were grown and treated by the standard procedures given above. Applications of spray compositions were made 14 days after planting ABUTH, 8 days after planting ECHCF and 21 days after planting SIDSP. Evaluation of herbicidal inhibition was done 12 days after application."}, "[11]": {"tested_on": "Japanese millet (Echinochloa crus-galli, ECHCF)", "experiment": "Example 51 greenhouse herbicidal inhibition, paraquat dichloride compositions (Table 51)", "conditions": "evaluated 12 days after application", "from_the_text": "as §1, §2, §3, §4, §5, §10"}, "[12]": {"tested_on": "Velvetleaf (Abutilon theophrasti, ABUTH)", "experiment": "Example 51 greenhouse herbicidal inhibition, paraquat dichloride compositions (Table 51)", "conditions": "evaluated 12 days after application", "from_the_text": "as §1, §2, §3, §4, §5, §10"}}, "data": [{"smiles": "O=C(O)c1cc(Oc2ccc(C(F)(F)F)cc2Cl)ccc1[N+](=O)[O-]", "note": "[Acifluorfen]", "values": [{"measurement": "% Inhibition SIDSP", "setting": "[1]; acifluorfen rate 25 g a.i./ha", "result": 15, "unit": "%"}, {"measurement": "% Inhibition SIDSP", "setting": "[1]; acifluorfen rate 50 g a.i./ha", "result": 17, "unit": "%"}, {"measurement": "% Inhibition SIDSP", "setting": "[1]; acifluorfen rate 100 g a.i./ha", "result": 35, "unit": "%"}, {"measurement": "% Inhibition SIDSP", "setting": "[1]; acifluorfen rate 200 g a.i./ha", "result": 40, "unit": "%"}, {"measurement": "% Inhibition ECHCF", "setting": "[2]; acifluorfen rate 25 g a.i./ha", "result": 2, "unit": "%"}, {"measurement": "% Inhibition ECHCF", "setting": "[2]; acifluorfen rate 50 g a.i./ha", "result": 7, "unit": "%"}, {"measurement": "% Inhibition ECHCF", "setting": "[2]; acifluorfen rate 100 g a.i./ha", "result": 18, "unit": "%"}, {"measurement": "% Inhibition ECHCF", "setting": "[2]; acifluorfen rate 200 g a.i./ha", "result": 35, "unit": "%"}, {"measurement": "% Inhibition ABUTH", "setting": "[3]; acifluorfen rate 25 g a.i./ha", "result": 20, "unit": "%"}, {"measurement": "% Inhibition ABUTH", "setting": "[3]; acifluorfen rate 50 g a.i./ha", "result": 32, "unit": "%"}, {"measurement": "% Inhibition ABUTH", "setting": "[3]; acifluorfen rate 100 g a.i./ha", "result": 52, "unit": "%"}, {"measurement": "% Inhibition ABUTH", "setting": "[3]; acifluorfen rate 200 g a.i./ha", "result": 62, "unit": "%"}]}, {"smiles": "COC(=O)NS(=O)(=O)c1ccc(N)cc1", "note": "[Asulam]", "values": [{"measurement": "% Inhibition SIDSP", "setting": "[4]", "result": 0, "unit": "%"}, {"measurement": "% Inhibition ECHCF", "setting": "[5]", "result": 12, "unit": "%"}]}, {"smiles": "COc1c(Cl)ccc(Cl)c1C(=O)O", "note": "[Dicamba]", "values": [{"measurement": "% Inhibition SDSP", "setting": "[6]; dicamba rate 25 g a.i./ha", "result": 30, "unit": "%"}, {"measurement": "% Inhibition SDSP", "setting": "[6]; dicamba rate 50 g a.i./ha", "result": 40, "unit": "%"}, {"measurement": "% Inhibition SDSP", "setting": "[6]; dicamba rate 100 g a.i./ha", "result": 50, "unit": "%"}, {"measurement": "% Inhibition SDSP", "setting": "[6]; dicamba rate 200 g a.i./ha", "result": 58, "unit": "%"}, {"measurement": "% Inhibition ECHCF", "setting": "[7]; dicamba rate 25 g a.i./ha", "result": 0, "unit": "%"}, {"measurement": "% Inhibition ECHCF", "setting": "[7]; dicamba rate 50 g a.i./ha", "result": 0, "unit": "%"}, {"measurement": "% Inhibition ECHCF", "setting": "[7]; dicamba rate 100 g a.i./ha", "result": 0, "unit": "%"}, {"measurement": "% Inhibition ECHCF", "setting": "[7]; dicamba rate 200 g a.i./ha", "result": 5, "unit": "%"}, {"measurement": "% Inhibition ABUTH", "setting": "[8]; dicamba rate 25 g a.i./ha", "result": 47, "unit": "%"}, {"measurement": "% Inhibition ABUTH", "setting": "[8]; dicamba rate 50 g a.i./ha", "result": 63, "unit": "%"}, {"measurement": "% Inhibition ABUTH", "setting": "[8]; dicamba rate 100 g a.i./ha", "result": 82, "unit": "%"}, {"measurement": "% Inhibition ABUTH", "setting": "[8]; dicamba rate 200 g a.i./ha", "result": 93, "unit": "%"}]}, {"smiles": "CCCCOC(=O)[C@@H](C)Oc1ccc(Oc2ccc(C(F)(F)F)cn2)cc1", "note": "[Fluazifop-p-butyl (technical)]", "values": [{"measurement": "% Inhibition ECHCF", "setting": "[9]", "result": 3, "unit": "%"}]}, {"smiles": "C[n+]1ccc(-c2cc[n+](C)cc2)cc1", "note": "[Paraquat dichloride]", "values": [{"measurement": "% Inhibition SIDSP", "setting": "[10]; paraquat rate 25 g a.i./ha", "result": 55, "unit": "%"}, {"measurement": "% Inhibition SIDSP", "setting": "[10]; paraquat rate 50 g a.i./ha", "result": 60, "unit": "%"}, {"measurement": "% Inhibition SIDSP", "setting": "[10]; paraquat rate 100 g a.i./ha", "result": 69, "unit": "%"}, {"measurement": "% Inhibition SIDSP", "setting": "[10]; paraquat rate 200 g a.i./ha", "result": 99, "unit": "%"}, {"measurement": "% Inhibition ECHCF", "setting": "[11]; paraquat rate 25 g a.i./ha", "result": 83, "unit": "%"}, {"measurement": "% Inhibition ECHCF", "setting": "[11]; paraquat rate 50 g a.i./ha", "result": 78, "unit": "%"}, {"measurement": "% Inhibition ECHCF", "setting": "[11]; paraquat rate 100 g a.i./ha", "result": 84, "unit": "%"}, {"measurement": "% Inhibition ECHCF", "setting": "[11]; paraquat rate 200 g a.i./ha", "result": 95, "unit": "%"}, {"measurement": "% Inhibition ABUTH", "setting": "[12]; paraquat rate 25 g a.i./ha", "result": 50, "unit": "%"}, {"measurement": "% Inhibition ABUTH", "setting": "[12]; paraquat rate 50 g a.i./ha", "result": 57, "unit": "%"}, {"measurement": "% Inhibition ABUTH", "setting": "[12]; paraquat rate 100 g a.i./ha", "result": 73, "unit": "%"}, {"measurement": "% Inhibition ABUTH", "setting": "[12]; paraquat rate 200 g a.i./ha", "result": 85, "unit": "%"}]}]}
